Assay results published in PubChem BioAssay AID1259407 (Chemical Carcinogenesis Research Information System (CCRIS), 2018).
The source made the active and inactive calls. The rule behind the calls is not given here.

System: CCRIS mutagenicity, Ames/micronucleus/aberration tests
Test: CCRIS mutagenicity studies
[1] = Test System: AMES SALMONELLA TYPHIMURIUM, Strain/Indicator: TA97, Metabolic Activation: NONE, Method: PREINCUBATION
[2] = Test System: AMES SALMONELLA TYPHIMURIUM, Strain/Indicator: TA98, Metabolic Activation: NONE, Method: PREINCUBATION
[3] = Test System: AMES SALMONELLA TYPHIMURIUM, Strain/Indicator: TA100, Metabolic Activation: NONE, Method: PREINCUBATION
[4] = Test System: AMES SALMONELLA TYPHIMURIUM, Strain/Indicator: TA1535, Metabolic Activation: NONE, Method: PREINCUBATION
[5] = Test System: AMES SALMONELLA TYPHIMURIUM, Strain/Indicator: TA1537, Metabolic Activation: NONE, Method: PREINCUBATION

In the case of `CS(=O)(=O)c1ccc(O)c(N)c1`, the mutagenic call (Test System: AMES SALMONELLA TYPHIMURIUM, Strain/Indicator: TA97, Metabolic Activation: HAMSTER, LIVER, S-9, AROCLOR 1254 (10 OR 30%), Method: PREINCUBATION) is reported as “inactive; negative”, the mutagenic call [1] is reported as “inactive; negative” and the mutagenic call (Test System: AMES SALMONELLA TYPHIMURIUM, Strain/Indicator: TA97, Metabolic Activation: RAT, LIVER, S-9, AROCLOR 1254 (10 OR 30%), Method: PREINCUBATION) is reported as “inactive; negative”. For the same compound, the mutagenic call (Test System: AMES SALMONELLA TYPHIMURIUM, Strain/Indicator: TA98, Metabolic Activation: HAMSTER, LIVER, S-9, AROCLOR 1254 (10 OR 30%), Method: PREINCUBATION) was “inactive; negative”, the mutagenic call [2] was “inactive; negative” and the mutagenic call (Test System: AMES SALMONELLA TYPHIMURIUM, Strain/Indicator: TA98, Metabolic Activation: RAT, LIVER, S-9, AROCLOR 1254 (10 OR 30%), Method: PREINCUBATION) was “inactive; negative”. The mutagenic call (Test System: AMES SALMONELLA TYPHIMURIUM, Strain/Indicator: TA100, Metabolic Activation: HAMSTER, LIVER, S-9, AROCLOR 1254 (10 OR 30%), Method: PREINCUBATION) was “inactive; negative”, the mutagenic call [3] was “inactive; negative” and the mutagenic call (Test System: AMES SALMONELLA TYPHIMURIUM, Strain/Indicator: TA100, Metabolic Activation: RAT, LIVER, S-9, AROCLOR 1254 (10 OR 30%), Method: PREINCUBATION) was “inactive; negative”. For the same compound, the mutagenic call (Test System: AMES SALMONELLA TYPHIMURIUM, Strain/Indicator: TA1535, Metabolic Activation: HAMSTER, LIVER, S-9, AROCLOR 1254 (10 OR 30%), Method: PREINCUBATION) was “inactive; negative”, the mutagenic call [4] was “inactive; negative” and the mutagenic call (Test System: AMES SALMONELLA TYPHIMURIUM, Strain/Indicator: TA1535, Metabolic Activation: RAT, LIVER, S-9, AROCLOR 1254 (10 OR 30%), Method: PREINCUBATION) was “inactive; negative”. For the same compound, the mutagenic call (Test System: AMES SALMONELLA TYPHIMURIUM, Strain/Indicator: TA1537, Metabolic Activation: HAMSTER, LIVER, S-9, AROCLOR 1254 (10 OR 30%), Method: PREINCUBATION) was “inactive; negative”, the mutagenic call [5] was “inactive; negative” and the mutagenic call (Test System: AMES SALMONELLA TYPHIMURIUM, Strain/Indicator: TA1537, Metabolic Activation: RAT, LIVER, S-9, AROCLOR 1254 (10 OR 30%), Method: PREINCUBATION) was “inactive; negative”.

`CCCCCCCCCCCCN(C)N=O` was tested, and the mutagenic call (Test System: AMES SALMONELLA TYPHIMURIUM, Strain/Indicator: TA100, Metabolic Activation: RAT, LIVER, S-9, KC500 OR PHENOBARBITAL, Method: LIQUID SUSPENSION) was “active; positive”.

In the case of `NC(N)=O`, the mutagenic call [2] is reported as “inactive; negative”, the mutagenic call (Test System: AMES SALMONELLA TYPHIMURIUM, Strain/Indicator: TA98, Metabolic Activation: RAT, LIVER, S-9, KC 500, Method: PREINCUBATION) is reported as “inactive; negative” and the mutagenic call [3] is reported as “inactive; negative”. The mutagenic call (Test System: AMES SALMONELLA TYPHIMURIUM, Strain/Indicator: TA100, Metabolic Activation: RAT, LIVER, S-9, KC 500, Method: PREINCUBATION) was “inactive; negative”, the mutagenic call [4] was “inactive; negative” and the mutagenic call (Test System: AMES SALMONELLA TYPHIMURIUM, Strain/Indicator: TA1535, Metabolic Activation: RAT, LIVER, S-9, KC 500, Method: PREINCUBATION) was “inactive; negative”. The mutagenic call [5] was “inactive; negative”, the mutagenic call (Test System: AMES SALMONELLA TYPHIMURIUM, Strain/Indicator: TA1537, Metabolic Activation: RAT, LIVER, S-9, KC 500, Method: PREINCUBATION) was “inactive; negative” and the mutagenic call (Test System: AMES SALMONELLA TYPHIMURIUM, Strain/Indicator: TA1538, Metabolic Activation: NONE, Method: PREINCUBATION) was “inactive; negative”. For the same compound, the mutagenic call (Test System: AMES SALMONELLA TYPHIMURIUM, Strain/Indicator: TA1538, Metabolic Activation: RAT, LIVER, S-9, KC 500, Method: PREINCUBATION) was “inactive; negative”, the mutagenic call (Test System: E. COLI, Strain/Indicator: WP2 UVRA, Metabolic Activation: NONE, Method: PREINCUBATION) was “inactive; negative” and the mutagenic call (Test System: E. COLI, Strain/Indicator: WP2 UVRA, Metabolic Activation: RAT, LIVER, S-9, KC 500, Method: PREINCUBATION) was “inactive; negative”. For the same compound, the mutagenic call (Test System: MOUSE LYMPHOMA, Strain/Indicator: L5178Y (TK+/TK-), Metabolic Activation: NONE, Method: SUSPENSION/PLATE) was “active; positive”.

`NC(=O)N/N=C/C(=O)O` was tested, and the mutagenic call (Test System: AMES SALMONELLA TYPHIMURIUM, Strain/Indicator: TA98, Metabolic Activation: NONE, Method: STANDARD PLATE) was “inactive; negative”, the mutagenic call (Test System: AMES SALMONELLA TYPHIMURIUM, Strain/Indicator: TA98, Metabolic Activation: RAT, LIVER, S-9, AROCLOR 1254, Method: STANDARD PLATE) was “inactive; negative” and the mutagenic call (Test System: AMES SALMONELLA TYPHIMURIUM, Strain/Indicator: TA100, Metabolic Activation: NONE, Method: STANDARD PLATE) was “inactive; negative”. The mutagenic call (Test System: AMES SALMONELLA TYPHIMURIUM, Strain/Indicator: TA100, Metabolic Activation: RAT, LIVER, S-9, AROCLOR 1254, Method: STANDARD PLATE) was “inactive; negative”, the mutagenic call (Test System: AMES SALMONELLA TYPHIMURIUM, Strain/Indicator: TA1535, Metabolic Activation: NONE, Method: STANDARD PLATE) was “inactive; negative” and the mutagenic call (Test System: AMES SALMONELLA TYPHIMURIUM, Strain/Indicator: TA1535, Metabolic Activation: RAT, LIVER, S-9, AROCLOR 1254, Method: STANDARD PLATE) was “inactive; negative”. The mutagenic call (Test System: AMES SALMONELLA TYPHIMURIUM, Strain/Indicator: TA1537, Metabolic Activation: NONE, Method: STANDARD PLATE) was “inactive; negative”, the mutagenic call (Test System: AMES SALMONELLA TYPHIMURIUM, Strain/Indicator: TA1537, Metabolic Activation: RAT, LIVER, S-9, AROCLOR 1254, Method: STANDARD PLATE) was “inactive; negative” and the mutagenic call (Test System: AMES SALMONELLA TYPHIMURIUM, Strain/Indicator: TA1538, Metabolic Activation: NONE, Method: STANDARD PLATE) was “inactive; negative”. The mutagenic call (Test System: AMES SALMONELLA TYPHIMURIUM, Strain/Indicator: TA1538, Metabolic Activation: RAT, LIVER, S-9, AROCLOR 1254, Method: STANDARD PLATE) was “inactive; negative”.

With `CCN(CC)CCCC(C)Nc1cc(OC)cc2cccnc12` (stereo not drawn) the mutagenic call [1] was “inactive; negative”, the mutagenic call (Test System: AMES SALMONELLA TYPHIMURIUM, Strain/Indicator: TA97, Metabolic Activation: RAT, LIVER, S-9, PHENOBARBITAL AND BETA-NAPHTHOFLAVONE, Method: PREINCUBATION) was “inactive; negative” and the mutagenic call [2] was “active; positive”. The mutagenic call (Test System: AMES SALMONELLA TYPHIMURIUM, Strain/Indicator: TA98, Metabolic Activation: RAT, LIVER, S-9, PHENOBARBITAL AND BETA-NAPHTHOFLAVONE, Method: PREINCUBATION) was “inactive; negative”, the mutagenic call [3] was “inactive; negative” and the mutagenic call (Test System: AMES SALMONELLA TYPHIMURIUM, Strain/Indicator: TA100, Metabolic Activation: RAT, LIVER, S-9, PHENOBARBITAL AND BETA-NAPHTHOFLAVONE, Method: PREINCUBATION) was “inactive; negative”. The mutagenic call (Test System: AMES SALMONELLA TYPHIMURIUM, Strain/Indicator: TA102, Metabolic Activation: NONE, Method: PREINCUBATION) was “inactive; negative”, the mutagenic call (Test System: AMES SALMONELLA TYPHIMURIUM, Strain/Indicator: TA102, Metabolic Activation: RAT, LIVER, S-9, PHENOBARBITAL AND BETA-NAPHTHOFLAVONE, Method: PREINCUBATION) was “inactive; negative” and the mutagenic call (Test System: E.COLI, Strain/Indicator: WP2UVRA/PKM101, Metabolic Activation: NONE, Method: PREINCUBATION) was “inactive; negative”. The mutagenic call (Test System: E.COLI, Strain/Indicator: WP2UVRA/PKM101, Metabolic Activation: RAT LIVER S-9, PHENOBARBITAL AND 5,6-BENZOFLAVONE, Method: PREINCUBATION) was “inactive; negative”.

`CC(=O)Nc1cnc2ccccc2c1` was tested, and the mutagenic call [2] was “inactive; negative”, the mutagenic call (Test System: AMES SALMONELLA TYPHIMURIUM, Strain/Indicator: TA98, Metabolic Activation: RAT, LIVER, S-9, KANECHLOR 500, Method: PREINCUBATION) was “inactive; negative” and the mutagenic call [3] was “inactive; negative”. For the same compound, the mutagenic call (Test System: AMES SALMONELLA TYPHIMURIUM, Strain/Indicator: TA100, Metabolic Activation: RAT, LIVER, S-9, KANECHLOR 500, Method: PREINCUBATION) was “inactive; negative”.
